Laboratory results: US8618122B2, “Compound having acidic group which may be protected, and use thereof” (Ono Pharmaceutical Co., Ltd., priority 2006, dated 2013)

What was measured:
[1] = target: T1, CXCR4 (Homo sapiens, UniProt P61073); test: Inhibition of binding human SDF-1 (125I-SDF-1) to CEM cells; details: 125I-SDF-1 binding to human T cell strain CEM cells, 4° C., 60 minutes
T1 construct: a human T cell strain in which CXCR4 is known to be expressed; endogenous in cells; host or cells: CEM cells (human T cell strain)
T1 sequence (P61073 whole entry): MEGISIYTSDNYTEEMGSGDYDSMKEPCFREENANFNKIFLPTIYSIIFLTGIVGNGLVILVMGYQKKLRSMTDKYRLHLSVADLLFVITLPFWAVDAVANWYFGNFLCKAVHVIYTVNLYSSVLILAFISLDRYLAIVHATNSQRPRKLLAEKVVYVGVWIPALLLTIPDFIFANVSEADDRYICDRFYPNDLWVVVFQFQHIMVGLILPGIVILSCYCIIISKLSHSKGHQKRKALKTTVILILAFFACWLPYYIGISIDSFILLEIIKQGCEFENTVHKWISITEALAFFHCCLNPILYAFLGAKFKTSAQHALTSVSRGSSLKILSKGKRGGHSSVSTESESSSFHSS
Experimental: Specifically, as a system of screening a compound that inhibits the binding between SDF-1 and CXCR4, for example a system of measuring the binding between iodine-labeled SDF-1 and a human T cell strain in which CXCR4 is known to be expressed is operable.
To human T cell strain CEM cells in a binding buffer (containing HEPES and BSA), the test compound and ^125I-SDF-1 (NEN) were added and the mixture was incubated at 4° C. for 60 minutes. The reacted CEM cells were rapidly filtrated with a GF/B membrane filter plate (Packard) to adsorb. The plate was washed with phosphate buffered saline (hereinafter abbreviated to PBS) three times and then dried. Microscint+20 (Packard) was added thereto. An amount of the radioactivity bound to the CEM cells was measured using Top Count (Packard) and inhibition (%) of the test compound was calculated according to the following equation: Inhibition={(Et−Ea)/(Et−Ec)}×100
Et: Amount of radioactivity when the test compound is not added,
Ec: Amount of radioactivity when non-radioactive SDF-1 (Pepro Tech) is added in an amount of 1,000 times as much as ^125I-SDF-1 as a test compound,
Ea: Amount of radioactivity when the test compound is added.

[2] = Artificial lipid membrane binding using Biacore S51 system (in vitro phospholipidosis risk); details: for Determination: Biacore lipid membrane binding, positive if corrected value 150 or more; for Corrected value of binding response (RU): compound 50 μM in PBS/5% DMSO (pH 7.4), 37° C., DOPA liposome on Sensor Chip L1
Experimental: 10 mM of 1,2-dioleoyl-sn-glycero-3-phosphate monosodium salt (hereinafter abbreviated as DOPA) chloroform solution was evaporated to dryness by means of an aspirator, and 0.6 mL of PBS/5% dimethyl sulfoxide (hereinafter abbreviated as DMSO) was added. The solution was fully suspended by the vortex mixer, and the freezing and thawing were repeated for 5 times. Liposome was created by the liposome preparation instrument (manufactured by Avestin Inc.) and two syringes, and was diluted to 0.5 mM with PBS/5% DMSO just prior to immobilization.
38 μl of 1×PBS was added to 2 μl of a DMSO solution (10 mM), and the 360 μl of 1×PBS/5% DMSO was further added thereto and the 50 μM of final concentration in PBS/5% DMSO was prepared and measured.
All of the following analysis used Biacore® S51 system and the measurement conditions were set by Biacore S51 Control Soft.
The measurement temperature was set to be 37° C., and PBS/5% DMSO (pH 7.4) was used as a buffer. Series S Sensor Chip L1 was used for a sensor chip. DOPA was immobilized in one of the measuring spots on the sensor surface and the central spot was used as a reference.
Immobilization of liposome was conducted at a flow rate of 10 μL/min for about 3 minutes and then the compound was added at a flow rate of 30 μL/min and the interaction was measured. The measurement conditions are as follows: • Assay buffer: PBS/5% DMSO (pH 7.4) • Measurement temperature: 37° C. • Sensor chip: Series S Sensor Chip L1 • Flow rate: 10 μL/min at the time of the liposome immobilization; 30 μL/min at the time of the measurement of interaction with the compound Regeneration: 20 mM CHAPS (3-[(3-cholamidopropyl)dimethylammonio]-1-propanesulfonate), isopropanol/aqueous 50 mM sodium hydroxide solution=40/60 (volume ratio) mixture (60 seconds) (4) Data Processing
The data processing was conducted by means of method of Abdiche et al. (Analytical biochemistry, 328, 233-243 (2004)) by using Biacore S51 Evaluation Soft.
Regarding the value of binding response (RU) in which the value of reference was subtracted, it was divided by a sample molecular weight after minute error of the DMSO concentration included in the sample solution was corrected. In addition, the value obtained here was divided by an amount of capture at the time of the cycle because the value obtained here was proportional to the amount of capture of the liposome and the value was multiplied by a million to be considered as a corrected value (Corrected value=1,000,000×RU (test compound)/molecular quantity (test compound) RU (liposome)).
Propranolol, amiodarone, desipramine, imipramine and procaine were added as the controls, and it was recognized that the variation of the binding response was within about 10 to 15%.
The compound wherein a value of the binding response after the correction was 150 or more was determined as positive.

[3] = system: CHL/IU (cell line derived from a Chinese hamster lung); test: Phospholipidosis detecting system using fluorescent labeling phospholipid analog (NBD-PE); assay type: cell-based; details: for Rate of increase of phopholipid accumulation (%): compound dose: 100 μM, CHL/IU cells, NBD-PE, about 24 hours; for Determination: positive if 25% or more of maximum increase rate of amiodarone
Experimental: 100 μL/well as required (1 dose 2 wells) of cell suspension of CHL/IU (cell line derived from a Chinese hamster lung) (7×10^4 cells/mL) prepared by MEM (minimum essential medium) culture medium was added to a 96-well plate (96-well clear-bottom plate), and cultured for about 24 hours. After culture, the supernatant of the 96-well plate was removed, and the 100 μL/well compounds of each concentration dissolved and suspended in an MEM including 25 μmol/L nitrobenzoxadiazole dipalmitoyl phosphatidylethanolamine (NBD-PE) (hereinafter abbreviated as a NPD-PE medium) were added and treated for about 24 hours. The treatment concentrations of each compound were set to be 6.25, 12.5, 25, 50 and 100 μmol/L. The positive control substance was set to be amiodarone hydrochloride, and the treatment concentrations were set to be 1.25, 2.5, 5, 10 and 20 μmol/L. In addition, 5-well untreated controls (only MEM) and 5-well NBD-PE controls (made by means of adding a 1/100 amount of DMSO to the NBD-PE culture medium) were set per compound, and cultured in the same manner. After finishing the culture, the cultures were washed twice with phosphate buffered saline (hereinafter abbreviated as PBS) (−) 100 μL/well, and the MEM (100 μL) was added to all of the treatment wells including two empty wells for WST-1 background controls and cultured for about a half hour. The fluorescence intensities of each well were measured by using a microplate reader (manufactured by Molecular Devices Inc., SPECTRA max M2; the excitation wavelength 485 nm/fluorescence wavelength 535 nm). Using the average values of each dose×2 wells, a phospholipid increase rate (%) to the NBD-PE control was calculated by using the following calculating formula: Rate of increase of pholipid accumulation (%)=100×{(test compound fluorescence intensity−non-treated control fluorescence intensity)/(NBD-PE control fluorescence intensity−non-treated control fluorescence intensity)} (3) Cytotoxicity Assay 96-well plate measured in the phospholipid accumulation measurement was measured by means of Plate Reader (manufactured by Molecular Devices Inc., SPECTRA max M2) with the main wavelength of 450 nm and the correct wavelength of 690 nm to calculate a Pre value. An amount of 5 μL/well of Premix WS T-1 was added to each of the 96-hole plates by which Pre measurement was conducted. After culture for 2 to 4 hours, the 96-well plate was measured as well as the Pre measurement to calculate an Aft value. Then, the background control value was subtracted from the each measured value. A value which was calculated by subtracting the Pre value from the Aft value was used, then the cell growth rate (%) was calculated by using the following calculating formula: Cell growth rate (%)=100×[(test substance OD)/(NBD-PE control OD)] (4) Determination A test dose that indicated value of 25% or more of the maximum phospholipid accumulation increase rate of amiodarone which was the positive control was determined as positive. In addition, the dose whose cell growth rate was equal to or less than 50% in the cytotoxicity assay was not used for determination of existence or nonexistence of a phospholipidosis inductive effect.

Row | SMILES | IC50 [1] [µM] | Determination [2] | Corrected value of binding response (RU) [2] [RU] | Rate of increase of phopholipid accumulation (%) [3] [%] | Determination [3]
1 | CCOC(=O)CCCn1ccnc1CN(Cc1ccc(CN2CCC3(CCN(CC(C)C)CC3)C2)cc1)Cc1ncc[nH]1 [Example 37 (1), Ethyl 4-(2-{[(1H-imidazol-2-ylmethyl){4-[(8-isobutyl-2,8-diazaspiro[4.5]dec-2-yl)methyl]benzyl}amino]methyl}-1 H-imidazol-1-yl)butanoate] | 0.0137 |  |  |  | 
2 | CC(C)CN1CCC2(CC1)CCN(Cc1ccc(CN(Cc3ncc[nH]3)Cc3nccn3CCCC(=O)O)cc1)C2 [Example 38 (1), 4-(2-{[(1H-imidazol-2-ylmethyl){4-[(8-isobutyl-2,8-diazaspiro[4.5]dec-2-yl)methyl]benzyl}amino]methyl}-1H-imidazol-1-yl)butanoic Acid] | 0.0187 | Negative (The compound wherein a value of the binding response after the correction was 150 or more was determined as positive) | 5.4 | 8 | Negative (A test dose that indicated value of 25% or more of the maximum phospholipid accumulation increase rate of amiodarone which was the positive control was determined as positive)
3 | CCOC(=O)CCCn1ccnc1CN(Cc1ccc(CN2CCC3(CCN(C(CC)CC)CC3)C2)cc1)Cc1ncc[nH]1 [Example 37 (3), Ethyl 4-(2-{[(4-{[8-(1-ethylpropyl)-2,8-diazaspiro[4.5]dec-2-yl]methyl]benzyl)(1 H-imidazol-2-ylmethyl)amino]methyl}-1H-imidazol-1-yl)butanoate] | 0.0118 |  |  |  | 
4 | O=C(O)CCn1ccnc1CN(Cc1ccc(CN2CCC3(CCN(C4CCCCC4)CC3)C2)cc1)Cc1ncc[nH]1 [Example 9 (1), 3-(2-{[{4-[(8-cyclohexyl-2,8-diazaspiro[4.5]dec-2-yl)methyl]benzyl}(1H-imidazol-2-ylmethyl)amino]methyl}-1H-imidazol-1-yl)propionic Acid] | 0.0034 | Negative (The compound wherein a value of the binding response after the correction was 150 or more was determined as positive) | 52.0 | 6 | Negative (A test dose that indicated value of 25% or more of the maximum phospholipid accumulation increase rate of amiodarone which was the positive control was determined as positive)
5 | CC(OC(=O)CCn1ccnc1CN(Cc1ccc(CN2CCC3(CCN(C4CCCCC4)CC3)C2)cc1)Cc1ncc[nH]1)OC(=O)OC1CCCCC1 (centres unmarked) [Example 36, 1-{[(cyclohexyloxy)carbonyl]oxy}ethyl 3-(2-{[{4-[(8-cyclohexyl-2,8-diazaspiro[4.5]dec-2-yl)methyl]benzyl}(1H-imidazol-2-ylmethyl)amino]methyl}-1H-imidazol-1-yl)propanoate] | 0.0204 |  |  |  | 
6 | CCC(CC)N1CCC2(CCN(Cc3ccc(CN(Cc4ncc[nH]4)Cc4nccn4CCCC(=O)O)cc3)C2)CC1 [Example 38 (3), 4-(2-{[(4-{[8-(1-ethylpropyl)-2,8-diazaspiro[4.5]dec-2-yl]methyl]benzyl)(1H-imidazol-2-ylmethyl)amino]methyl}-1H-imidazol-1-yl)butanoic Acid] | 0.012 | Negative (The compound wherein a value of the binding response after the correction was 150 or more was determined as positive) | 98.9 | 11 | Negative (A test dose that indicated value of 25% or more of the maximum phospholipid accumulation increase rate of amiodarone which was the positive control was determined as positive)
7 | O=C(O)Cn1ccnc1CN(Cc1ccc(CN2CCC3(CCN(C4CCCCC4)CC3)C2)cc1)Cc1ncc[nH]1 [Example 9, (2-{[{4-[(8-cyclohexyl-2,8-diazaspiro[4.5]dec-2-yl)methyl]benzyl}(1H-imidazol-2-ylmethyl)amino]methyl}-1H-imidazol-1-yl)acetic Acid] | 0.0048 | Negative (The compound wherein a value of the binding response after the correction was 150 or more was determined as positive) | 59.0 | 10 | Negative (A test dose that indicated value of 25% or more of the maximum phospholipid accumulation increase rate of amiodarone which was the positive control was determined as positive)
